In the experiment the test system is Erwinia carotovora (potato Erwinia carotovora). The experiment can be described thus: Test for growth inhibition of potato Erwinia carotovora (PSA medium plate). Conditions: for Growing state of Erwinia carotovora (formed colonies): PSA medium, 25 degrees C., 4 days, two plates per cell. It is filed as cell-based. The procedure: Reference test example: Test for growth inhibition of potato Erwinia carotovora
A test for growth inhibition of Erwinia carotovora in the case of direct application of the control agent to Erwinia carotovora was performed. To previously melted PSA medium (55 degrees C.), a predetermined amount of a pesticide 3-chloro-N-(3-chloro-5-trifluoromethyl-2-pyridyl)-alpha,alpha,alpha-trifluoro-2,6-dinit ro-p-toluidine (fluazinam, Frowncide SC (trade name), manufactured by Ishihara Sangyo Kaisha, Ltd.), ethaboxam wettable powder (Ethaboxam, Gardian (trade name), manufactured by LG Chemical), or streptomycin (Mycin wettable powder (trade name), manufactured by Hokko Chemical Industry Co., Ltd.) and a suspension of Erwinia carotovora (potato Erwinia carotovora) were added and the resulting mixture was stirred well, and then, poured in a plate. Then, the plate was cultured at 25 degrees C. for 4 days, and the growing state of Erwinia carotovora was examined. Thereafter, the formed colonies were examined according to the following three criteria. • +: Equal to the colonies of the untreated group • Plus or minus: Apparently less than the colonies of the untreated group • −: Almost no colonies

The text below walks through data of patent publication US20120088803A1, “CONTROL AGENT FOR SOFT ROT AND CONTROL METHOD FOR THE SAME” (Ishihara Sangyo Kaisha, Ltd, priority 2009, published 2012).

As for `CCNc1nc(CC)c(C(=O)NC(C#N)c2cccs2)s1` (stereo not shown) [Ethaboxam WP, ethaboxam], the “Growing state of Erwinia carotovora (formed colonies)” value is reported as “+, +” (Active ingredient concentration 100 ppm); “+, +” (Active ingredient concentration 500 ppm); “+, +” (Active ingredient concentration 1000 ppm). Also, the “Growth inhibition of Erwinia carotovora (in words)” value (active ingredient concentration of 1000 ppm, direct application) was “did not inhibit the growth”.
